Measurements as given in patent US9695155B2, “Herbicidal substituted pyrimidinyloxy benzene compounds” (E. I. DU PONT DE NEMOURS AND COMPANY, priority 2013, dated 2017).

Assays:
giant foxtail [1] = test: Test A preemergence; format: in vivo, Setaria faberii; settings: 0 to 100 scale where 0 is no effect and 100 is complete control
How it was run: (§1)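 Injury scores run from 0, no effect, to 100, complete control, judged by eye against untreated plants roughly 10 days after treatment. Chemicals carried a surfactant in a non-phytotoxic solvent and went onto loam–sand soil preemergence or onto one- to two-leaf seedlings postemergence.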

pigweed [2] = test: Test A preemergence; format: in vivo, Amaranthus retroflexus; settings: 0 to 100 scale where 0 is no effect and 100 is complete control
How it was run: as §1

rice = test: Test B flooded paddy test; format: in vivo, Oryza sativa; settings: Flood, 250 g ai/ha; 0 to 100 scale where 0 is no effect and 100 is complete control
How it was run: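 Greenhouse flooded-pot test: compounds dosed into 3 cm standing water over 2-leaf plants, flood held constant. Rated visually after 13–15 days on 0–100 (complete control = 100); a dash marks no test result.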

giant foxtail [3] = test: Test C preemergence; format: in vivo, Setaria faberii; settings: for Foxtail, Giant plant response rating: preemergence
How it was run: (§2)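 Sown in loam/sand → sprayed pre-emergence; or grown to 1–4 leaves in peat mix → sprayed post-emergence. Same solvent/surfactant formulation both ways. Greenhouse 13–15 d. Score 0–100 visual.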

yellow nutsedge [4] = test: Test C preemergence; format: in vivo, Cyperus esculentus; settings: preemergence
How it was run: as §2

pigweed [5] = test: Test C preemergence; format: in vivo, Amaranthus retroflexus; settings: preemergence
How it was run: as §2

barnyardgrass [6] = test: Test C preemergence; format: in vivo, Echinochloa crus-galli; settings: for Barnyardgrass plant response rating: preemergence
How it was run: as §2

Italian ryegrass = test: Test C postemergence; format: in vivo, Lolium multiflorum; settings: for Plant response rating, Ryegrass, Italian: scale 0 to 100 (0 no effect, 100 complete control)
How it was run: as §2

wheat, winter = test: Test C postemergence; format: in vivo, Triticum aestivum; settings: for Plant response rating, Wheat: scale 0 to 100 (0 no effect, 100 complete control)
How it was run: as §2

galium = test: Test C postemergence; format: in vivo, Galium aparine; settings: for Plant response rating, Galium: scale 0 to 100 (0 no effect, 100 complete control)
How it was run: as §2

corn = test: Test C postemergence; format: in vivo, Zea mays; settings: for Plant response rating, Corn: scale 0 to 100 (0 no effect, 100 complete control)
How it was run: as §2

yellow nutsedge [7] = test: Test C postemergence; format: in vivo, Cyperus esculentus; settings: for Plant response rating, Nutsedge, Yellow: scale 0 to 100 (0 no effect, 100 complete control)
How it was run: as §2

barnyardgrass [8] = test: Test C postemergence; format: in vivo, Echinochloa crus-galli; settings: for Plant response rating, Barnyardgrass: scale 0 to 100 (0 no effect, 100 complete control)
How it was run: as §2

kochia = test: Test C postemergence; format: in vivo, Kochia scoparia; settings: for Plant response rating, Kochia: scale 0 to 100 (0 no effect, 100 complete control)
How it was run: as §2

[9] = 16 g ai/ha, scale 0 to 100 (0 no effect, 100 complete control)
[10] = 62 g ai/ha, scale 0 (no effect) to 100 (complete control)
[11] = 125 g ai/ha, scale 0 (no effect) to 100 (complete control)
[12] = Preemergence, 31 g ai/ha, scale 0 to 100, 0 no effect, 100 complete control
[13] = 16 g ai/ha, postemergence, 0 is no effect, 100 is complete control
[14] = 125 g ai/ha, postemergence, visual rating

Cc1cnc(Oc2cccc(C#N)c2-n2cc(I)cn2)nc1 [Compound 136]
5: Plant response rating, Foxtail, Giant (giant foxtail [3]; [12]) | Plant response rating, Wheat (wheat, winter; [14]) | Plant response rating, Wheat (wheat, winter; Postemergence, 62 g ai/ha) | Plant response rating, Corn (corn; [14]) | Plant response rating, Nutsedge, Yellow (yellow nutsedge [7]; Postemergence, 62 g ai/ha) | Plant response rating, Barnyardgrass (barnyardgrass [8]; [14]) | Plant response rating (0 to 100), Kochia (kochia; [13])
55: Plant response rating, Galium (galium; Postemergence, 62 g ai/ha)
80: Foxtail, Giant plant response rating (giant foxtail [3]; [10])
35: Nutsedge, Yellow plant response rating (yellow nutsedge [4]; [11])
15: Plant response rating, Rice (rice)
100: Foxtail, Giant plant response rating (giant foxtail [1]; 500 g ai/ha) | Pigweed plant response rating (pigweed [2]; 500 g ai/ha) | Foxtail, Giant plant response rating (giant foxtail [3]; [11]) | Pigweed plant response rating (pigweed [5]; [11]) | Barnyardgrass plant response rating (barnyardgrass [6]; [11])
70: Plant response rating, Kochia (kochia; [14])
20: Plant response rating (0 to 100), Galium (galium; [13])
90: Plant response rating, Pigweed (pigweed [2]; 125 g ai/ha)
0: Foxtail, Giant plant response rating (giant foxtail [3]; [9]) | Nutsedge, Yellow plant response rating (yellow nutsedge [4]; [9]) | Pigweed plant response rating (pigweed [5]; [9]) | Barnyardgrass plant response rating (barnyardgrass [6]; [9]) | Plant response rating (0 to 100), Ryegrass, Italian (Italian ryegrass; [13]) | Plant response rating, Ryegrass, Italian (Italian ryegrass; [14]) | Plant response rating, Ryegrass, Italian (Italian ryegrass; Postemergence, 62 g ai/ha) | Plant response rating (0 to 100), Wheat (wheat, winter; [13]) | Plant response rating (0 to 100), Corn (corn; [13]) | Plant response rating, Corn (corn; Postemergence, 62 g ai/ha) | Plant response rating (0 to 100), Nutsedge, Yellow (yellow nutsedge [7]; [13]) | Plant response rating (0 to 100), Barnyardgrass (barnyardgrass [8]; [13]) | Plant response rating, Barnyardgrass (barnyardgrass [8]; Postemergence, 31 g ai/ha, 13 to 15 days) | Plant response rating, Barnyardgrass (barnyardgrass [8]; Postemergence, 62 g ai/ha)
40: Pigweed plant response rating (pigweed [5]; [10])
10: Nutsedge, Yellow plant response rating (yellow nutsedge [4]; [10]) | Plant response rating, Barnyardgrass (barnyardgrass [6]; [12]) | Plant response rating, Nutsedge, Yellow (yellow nutsedge [7]; [14])
60: Plant response rating, Foxtail, Giant (giant foxtail [1]; 125 g ai/ha) | Barnyardgrass plant response rating (barnyardgrass [6]; [10]) | Plant response rating, Galium (galium; [14]) | Plant response rating, Kochia (kochia; Postemergence, 62 g ai/ha)
